Article PMC11369432, “Study on the uptake of Gastrodin in the liver” (Heliyon, 2024)
Values joined by “and” are separate entries in the source; they are usually repeats but may differ in a detail not shown here. Equal values may be shown once. Where a name gives a salt, the structure may show the parent alone.

Tests used:
[1] = test system: OATPs; experiment: Check of the OATPs inhibitor in rats with BSP as substrate; assay type: in vivo; conditions: dose of 30 mg kg^−1, ELISA
Source text: (§1) Selecting suitable substrates and inhibitors of OATPs and OCTs is crucial for the experiment. Therefore, our team also used OATPs and OCTs inhibitors. Based on the relevant literature, metformin hydrochloride was selected as the substrate of OCTs, and sodium sulfobromophthalide (BSP) was selected as the substrate of OATPs. […] Most of the previous studies used RIF as an inhibitor of OATPs and epinephrine as an inhibitor of OCTs. We detected drug concentration in blood samples and in the liver of rats. The concentration of metformin hydrochloride was detected by HPLC, and BSP was measured by enzyme-linked immunosorbent assay (ELISA).

[2] = Gastrodin plasma and liver concentrations and Kp in rats, control group (no inhibitor); assay type: in vivo, Sprague-Dawley (SD) rats
Source text: (§2) The transporters involved in liver transport mainly include organic anion transport peptides (Oatps) and organic cation transporters (Octs), and these two transporters are most expressed in the liver. Therefore, this study chose Oatps and Octs as the research objects. Transport proteins affect drug efficacy and toxicity, the liver is the main organ for the metabolism of substances. […] Using the method of rats in vivo, and choose organic anion transfer peptide Oatps and organic cation transporter Octs inhibitors for the probe, after the transporters are suppressed, intravenous drip Gastrodine, drug concentrations reach homeostasis in blood drug concentration, drug absorption rate and elimination rate balance, illustrate the liver intake transporters saturated. Using HPLC determination of drug concentration in liver and blood at this time the ratio of the Kp (Kp = Css/Css drug concentration of liver blood drug concentration), and under normal circumstances (i.e., without giving inhibitors) compared to Kp, if Kp decrescent, namely that the drug transporters of the substrate. This study explore the intrinsic relationship between the uptake of Gastrodin in rat liver and the organic anion transport peptide Oatps and organic cation transporter Octs, thus preliminarily elucidating the molecular mechanism of Gastrodin uptake in the liver, provide theoretical basis for the safety of clinical combination therapy [[10], [11], [12]].
(§3) The use of experimental animals was approved by the Ethics Committee of Southwest University (Chongqing, China). We strictly followed the National and Institutional guidelines for animal protection and welfare. In total, 18 adult male Sprague-Dawley (SD) rats (SPF, weight: 150 ± 20g) were obtained from the Center of Experimental Animals, Sichuan Province People's Hospital. The rats were kept at room temperature (25 °C) with free access to food and water. They were allowed to adapt to the new environment for one week before starting induction and treatment. Following acclimatization, the experimental rats were randomly divided into three groups (n = 6) as follows: Control group (treated with Gastrodin), ADR group (treated with Gastrodin and adrenalone), and RIF group (treated with Gastrodin and rifampicin).
(§4) To clarify the role of hepatic transport proteins, the concentration of Gastrodin chosen for this experiment was 569 mg kg^−1 (converted from the concentration in mice: rat dose (mg·kg^−1) = mouse dose (mg·kg^−1)/1.44), based on the results of previous studies. An equal dose of Gastrodin was injected before intravenous drip as a loading dose, to ensure that the steady-state blood concentration (Css) of Gastrodin was reached and the transporter protein was saturated by 300 min of intravenous drip. Then, the volume of Gastrodin was computed according to the following formula: drop volume = drop speed (4 μL h^−1 g^−1) × time × weight.
(§5) Gastrodin solution: 1138.9 mg of Gastrodin extract was added to a 10 mL volumetric flask. Physiological saline was added and diluted to prepare a solution with a concentration of 113.89 mg mL^−1. Then, the solution was frozen and stored (administered at 1 mL·200g ^−1 i.v.).
(§6) The rats were fasted for 12 h before the experiment. They had free access to water. The rats were regularly weighed before the initiation of the experiment. The control group first received Gastrodin solution (569 mg kg^−1) through the caudal vein as a loading dose, followed by the caudal injection of a Gastrodin solution (569 mg kg^−1) at a rate of 4 μg h^−1·g^−1. Each rat of the RIF group was given rifampicin 2 mL·200 g^−1 via oral gavage and 1h later 569 mg kg^−1 of Gastrodin was injected. Likewise, the ADR group was injected with adrenalone (0.5 mL·200 g^−1) via the caudal vein, and 0.5 h later 569 mg kg^−1 of Gastrodin was injected. […]

[3] = test system: OATPs; experiment: Hepatic uptake of Gastrodin in rats after the OATPs inhibitor rifampicin (RIF group); assay type: in vivo, Sprague-Dawley (SD) rats
Source text: as §2, §3, §4, §5
Rifampicin (RIF) solution: 90 mg of rifampicin was precisely weighed. Then, 30 mL saline was added to prepare 3 mg mL^−1 solution (administered at 2 mL·200 g ^−1 i.g.).
as §6, with “injected.” for “injected. Likewise, the ADR group was injected with adrenalone (0.5 mL·200 g^−1) via the caudal vein, and 0.5 h later 569 mg kg^−1 of Gastrodin was injected.”

[4] = test system: OCTs; experiment: Hepatic uptake of Gastrodin in rats after the OCTs inhibitor adrenalone (ADR group); assay type: in vivo, Sprague-Dawley (SD) rats
Source text: as §2, §3, §4, §5
Adrenalone (ADR) solution: 64 mg of […] was weighed precisely and prepared at 8 mg mL^−1 concentration (administered at 0.5 mL·200 g^−1 i.v.) using 30 % PEG400 as solvent.
as §6, with “injected.” for “injected. Likewise, the ADR group was injected with adrenalone (0.5 mL·200 g^−1) via the caudal vein, and 0.5 h later 569 mg kg^−1 of Gastrodin was injected.”

[5] = Stability of Gastrodin solution (room temperature, repeated freeze-thaw); assay type: physicochemical; conditions: Gastrodin solution stored at −20 °C
Description: To verify whether the sample processing and detection methods were stable, we examined both their room temperature stability and their repeated freeze-thaw stability.
Three solutions containing 50 mg mL^−1, 100 mg mL^1, and 500 mg mL^−1 of Gastrodin were first prepared and stored at room temperature. This was then measured every 6 h. Finally, the RSD was calculated, which was examined for its room temperature stability.
Three solutions of the same concentration were prepared as described above and tested immediately after preparation. They were then stored at −20 °C for 21 h, removed to allow thawing, and left at room temperature for 3 h before assay. The test was continued at a low temperature and the RSD was calculated after repeating the assay three times to investigate its repeated freeze-thaw stability.

[6] = set-up: method as in doi:10.4103/pm.pm_307_19; conditions: mice, different doses; conforms to a two-compartment model; cited from earlier work
[7] = test system: OCTs; experiment: Check of the OCTs inhibitor in rats with metformin hydrochloride as substrate; assay type: in vivo
Source text: as §1

In the case of `CO[C@H]1/C=C/O[C@@]2(C)Oc3c(C)c(O)c4c(O)c(c(/C=N/N5CCN(C)CC5)c(O)c4c3C2=O)NC(=O)/C(C)=C\C=C\[C@H](C)[C@H](O)[C@@H](C)[C@@H](O)[C@@H](C)[C@H](OC(C)=O)[C@@H]1C` [RIF, rifampicin], the “Hepatic transport of OATPs in rats” value [1] is reported as “inhibited”.
For `OCc1ccc(O[C@@H]2O[C@H](CO)[C@@H](O)[C@H](O)[C@H]2O)cc1` [GAS, hydroxyl methyl benzene - beta - D - pyran glucoside], the “KP (liver / blood concentration)” value ([2]; Control group, single rats, 300 min) was 0.2918 and 0.2172 and 0.0618 and 0.3204 and 0.0919, the “Plasma concentration of GAS, 90min” value ([2]; Control group, single rats, Gastrodin 569 mg kg^−1 i.v. loading dose plus i.v. drip, 90 min) was 418.6414 µg/mL and 490.4070 µg/mL and 858.0713 µg/mL and 839.0300 µg/mL and 374.1060 µg/mL and 714.8180 µg/mL and the “Plasma concentration of GAS, 180min” value ([2]; Control group, single rats, Gastrodin 569 mg kg^−1 i.v. loading dose plus i.v. drip, 180 min) was 296.4502 µg/mL and 450.2900 µg/mL and 241.1238 µg/mL and 473.1890 µg/mL and 388.0036 µg/mL and 943.8820 µg/mL. For the same compound, the “Plasma concentration of GAS, 300min” value ([2]; Control group, single rats, Gastrodin 569 mg kg^−1 i.v. loading dose plus i.v. drip, 300 min) was 160.2300 µg/mL and 435.3740 µg/mL and 690.0752 µg/mL and 482.2634 µg/mL and 537.2563 µg/mL and 961.3480 µg/mL, the “Liver concentration of GAS” value ([2]; Control group, single rats, liver taken at 300 min) was 46.7539 µg/mL and 94.5472 µg/mL and 42.6760 µg/mL and 154.5100 µg/mL and 49.3480 µg/mL and 165.2782 µg/mL and the Kp at 300 min ([2]; male, Sprague-Dawley, rat, liver / blood, intravenous, 569 mg kg^−1, Control group, n = 6) was 0.14 ± 0.127. The “KP (liver / blood concentration)” value ([3]; RIF group, single rats, 300 min) was 0.0695 and 0.1237 and 0.0037 and 0.0044 and 0.0041 and 0.0042, the “Liver concentration of GAS” value ([3]; RIF group, single rats, liver taken at 300 min) was 143.4890 µg/mL and 54.8940 µg/mL and 33.3675 µg/mL and 48.7120 µg/mL and 41.0071 µg/mL and 101.5434 µg/mL and the “Plasma concentration of GAS, 90min” value ([3]; RIF group, single rats, rifampicin 2 mL·200 g^−1 i.g. 1 h before Gastrodin 569 mg kg^−1, 90 min) was 30828.4900 µg/mL and 1684.7620 µg/mL and 8505.0480 µg/mL and 15559.1500 µg/mL and 79163.4800 µg/mL and 26044.6400 µg/mL. For the same compound, the “Plasma concentration of GAS, 180min” value ([3]; RIF group, single rats, rifampicin i.g. 1 h before Gastrodin 569 mg kg^−1, 180 min) was 13840.5600 µg/mL and 8435.3490 µg/mL and 24589.4100 µg/mL and 8312.9910 µg/mL and 20131.4400 µg/mL and 4501.0340 µg/mL, the “Plasma concentration of GAS, 300min” value ([3]; RIF group, single rats, rifampicin i.g. 1 h before Gastrodin 569 mg kg^−1, 300 min) was 2063.3640 µg/mL and 8969.1250 µg/mL and 10985.5800 µg/mL and 9971.0380 µg/mL and 23912.4400 µg/mL and the “Substrate of OATPs” value ([3]; concluded from lower KP after OATPs inhibitor, rat in vivo) was “likely substrate”. The Kp at 300 min ([3]; male, Sprague-Dawley, rat, liver / blood, intravenous, RIF group, n = 6, *p < 0.05 vs Control) was 0.035 ± 0.0508, the concentration at 300 min ([3]; male, Sprague-Dawley, rat, plasma, intravenous, RIF group, single rats, rifampicin i.g. 1 h before Gastrodin 569 mg kg^−1, 300 min, read-out: Plasma concentration of GAS, 300min) was 444 µg/mL and the “KP (liver / blood concentration)” value ([4]; ADR group, single rats, 300 min) was 0.0645 and 0.0324 and 0.0463 and 0.0716 and 0.0447 and 0.1550. The “Plasma concentration of GAS, 90min” value ([4]; ADR group, single rats, adrenalone 0.5 mL·200 g^−1 i.v. 0.5 h before Gastrodin 569 mg kg^−1, 90 min) was 617.7201 µg/mL and 10576.3600 µg/mL and 1294.1160 µg/mL and 1093.5800 µg/mL and 3877.7610 µg/mL, the “Plasma concentration of GAS, 180min” value ([4]; ADR group, single rats, adrenalone i.v. 0.5 h before Gastrodin 569 mg kg^−1, 180 min) was 650.1415 µg/mL and 3246.9130 µg/mL and 497.0489 µg/mL and 1215.3470 µg/mL and 1883.7120 µg/mL and the “Plasma concentration of GAS, 300min” value ([4]; ADR group, single rats, adrenalone i.v. 0.5 h before Gastrodin 569 mg kg^−1, 300 min) was 2255.8310 µg/mL and 2303.3090 µg/mL and 659.0208 µg/mL and 643.2905 µg/mL and 1871.4590 µg/mL. The “Liver concentration of GAS” value ([4]; ADR group, single rats, liver taken at 300 min) was 25.4541 µg/mL and 73.1891 µg/mL and 106.5988 µg/mL and 47.2096 µg/mL and 28.7519 µg/mL and 290.1262 µg/mL, the “Substrate of OCTs” value ([4]; concluded from lower KP after OCTs inhibitor, rat in vivo) was “likely substrate” and the Kp at 300 min ([4]; male, Sprague-Dawley, rat, liver / blood, intravenous, ADR group, n = 6, *p < 0.05 vs Control) was 0.0691 ± 0.0444. It also gave a concentration at 90 min ([4]; male, Sprague-Dawley, rat, plasma, iv, ADR group, single rats, adrenalone 0.5 mL·200 g^−1 i.v. 0.5 h before Gastrodin 569 mg kg^−1, 90 min, read-out: Plasma concentration of GAS, 90min) of 762 µg/mL, a concentration at 180 min ([4]; male, Sprague-Dawley, rat, plasma, iv, ADR group, single rats, adrenalone i.v. 0.5 h before Gastrodin 569 mg kg^−1, 180 min, read-out: Plasma concentration of GAS, 180min) of 445 µg/mL and a concentration at 300 min ([4]; male, Sprague-Dawley, rat, plasma, iv, ADR group, single rats, adrenalone i.v. 0.5 h before Gastrodin 569 mg kg^−1, 300 min, read-out: Plasma concentration of GAS, 300min) of 394 µg/mL. The “Storage time with good stability” value [5] was “at least 3 days” and the Pharmacokinetic profile [6] was “non-linear”.
With `CNCC(=O)c1ccc(O)c(O)c1` [ADR, adrenalone] the “Hepatic transportation of OCTs in rats” value ([7]; dose of 20 mg kg^−1, substrate metformin hydrochloride, HPLC) was “inhibited”.
With `CN(C)C(=N)N=C(N)N` [metformin hydrochloride] the “Hepatic concentrations of the drug after OCTs inhibitor” value ([7]; rats, OCTs inhibitor given) was “significant reduction”.
